Experimental data from ChEMBL document CHEMBL1136216, “Potent quinoxaline-based inhibitors of PDGF receptor tyrosine kinase activity. Part 2: the synthesis and biological activities of RPR127963 an orally bioavailable inhibitor” (Bioorg Med Chem Lett, 2003).
Each block holds one compound with its values, some of them ahead of it.

Tests used:
[1] = molecular target: T1, Platelet-derived growth factor receptor (Homo sapiens, UniProt P09619+P16234); experiment: Inhibition of Platelet-derived growth factor receptor; assay type: protein-complex assay
HASMC = experiment: Inhibition of mitogenesis in human aortic smooth muscle cells (HASMC); assay type: functional, cell-based
[2] = molecular target: T1, Platelet-derived growth factor receptor; experiment: Inhibition of Platelet-derived growth factor receptor at 1 uM; assay type: protein-complex assay
[3] = Bioavailability in rat after 1 day dosing; assay type: ADME, organism-based; conditions: in vivo
[4] = Bioavailability in rat after 4 day dosing; assay type: ADME, organism-based; conditions: in vivo
[5] = molecular target: T1, Platelet-derived growth factor receptor; experiment: Inhibition of Platelet-derived growth factor receptor at 10 uM; assay type: protein-complex assay
[6] = molecular target: cAMP-dependent protein kinase (PKA) (Homo sapiens) (UniProt P22694+P17612+P22612); experiment: Inhibition of Protein kinase A at 100 uM; assay type: protein assay
[7] = Inhibition of Collagen production; assay type: functional
[8] = molecular target: Tyrosine-protein kinase SYK (Homo sapiens) (UniProt P43405); experiment: Inhibition of Syk tyrosine kinase at 10 uM
[9] = molecular target: Macrophage colony-stimulating factor 1 receptor (Homo sapiens) (UniProt P07333); experiment: Inhibition of Colony stimulating factor 1 receptor at 30 uM
Macrophage colony-stimulating factor 1 receptor (Homo sapiens), sequence (P07333 whole entry): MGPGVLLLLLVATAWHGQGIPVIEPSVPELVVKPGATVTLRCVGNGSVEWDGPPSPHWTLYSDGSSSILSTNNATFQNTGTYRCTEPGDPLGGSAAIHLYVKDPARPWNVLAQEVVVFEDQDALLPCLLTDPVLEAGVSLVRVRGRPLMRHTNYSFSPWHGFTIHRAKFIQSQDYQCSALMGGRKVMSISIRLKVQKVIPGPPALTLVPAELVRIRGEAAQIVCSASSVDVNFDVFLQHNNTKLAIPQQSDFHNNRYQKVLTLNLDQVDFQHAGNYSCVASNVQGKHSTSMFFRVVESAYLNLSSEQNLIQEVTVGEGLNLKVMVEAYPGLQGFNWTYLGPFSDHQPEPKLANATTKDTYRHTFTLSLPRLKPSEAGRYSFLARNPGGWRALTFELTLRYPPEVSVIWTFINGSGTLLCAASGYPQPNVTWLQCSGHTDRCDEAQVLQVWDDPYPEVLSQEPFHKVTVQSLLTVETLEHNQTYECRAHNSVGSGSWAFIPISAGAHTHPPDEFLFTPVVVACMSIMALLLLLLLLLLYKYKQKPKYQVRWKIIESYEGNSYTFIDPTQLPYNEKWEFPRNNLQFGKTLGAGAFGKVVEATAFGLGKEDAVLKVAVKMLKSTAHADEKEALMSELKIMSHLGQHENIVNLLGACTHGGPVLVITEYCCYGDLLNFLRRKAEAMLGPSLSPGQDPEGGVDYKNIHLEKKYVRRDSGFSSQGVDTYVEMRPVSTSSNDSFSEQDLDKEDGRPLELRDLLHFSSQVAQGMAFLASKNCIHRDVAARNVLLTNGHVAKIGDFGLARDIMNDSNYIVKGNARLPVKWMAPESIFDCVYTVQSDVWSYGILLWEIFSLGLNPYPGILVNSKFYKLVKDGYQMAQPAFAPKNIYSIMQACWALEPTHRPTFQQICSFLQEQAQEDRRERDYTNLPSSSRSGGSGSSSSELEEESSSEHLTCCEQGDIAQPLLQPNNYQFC

[10] = % Bioavailability after 4 day of the drug administration in rats; assay type: ADME, organism-based; conditions: rat, in vivo
[11] = molecular target: c-Jun N-terminal kinase, JNK (Homo sapiens, UniProt P45983+P53779+P45984); experiment: Inhibition of JNK, c-Jun N-terminal kinase; assay type: protein assay
[12] = molecular target: T2, Tyrosine-protein kinase JAK3 (Homo sapiens, UniProt P52333); experiment: Inhibition of Janus kinase 3
T2 sequence (P52333 whole entry): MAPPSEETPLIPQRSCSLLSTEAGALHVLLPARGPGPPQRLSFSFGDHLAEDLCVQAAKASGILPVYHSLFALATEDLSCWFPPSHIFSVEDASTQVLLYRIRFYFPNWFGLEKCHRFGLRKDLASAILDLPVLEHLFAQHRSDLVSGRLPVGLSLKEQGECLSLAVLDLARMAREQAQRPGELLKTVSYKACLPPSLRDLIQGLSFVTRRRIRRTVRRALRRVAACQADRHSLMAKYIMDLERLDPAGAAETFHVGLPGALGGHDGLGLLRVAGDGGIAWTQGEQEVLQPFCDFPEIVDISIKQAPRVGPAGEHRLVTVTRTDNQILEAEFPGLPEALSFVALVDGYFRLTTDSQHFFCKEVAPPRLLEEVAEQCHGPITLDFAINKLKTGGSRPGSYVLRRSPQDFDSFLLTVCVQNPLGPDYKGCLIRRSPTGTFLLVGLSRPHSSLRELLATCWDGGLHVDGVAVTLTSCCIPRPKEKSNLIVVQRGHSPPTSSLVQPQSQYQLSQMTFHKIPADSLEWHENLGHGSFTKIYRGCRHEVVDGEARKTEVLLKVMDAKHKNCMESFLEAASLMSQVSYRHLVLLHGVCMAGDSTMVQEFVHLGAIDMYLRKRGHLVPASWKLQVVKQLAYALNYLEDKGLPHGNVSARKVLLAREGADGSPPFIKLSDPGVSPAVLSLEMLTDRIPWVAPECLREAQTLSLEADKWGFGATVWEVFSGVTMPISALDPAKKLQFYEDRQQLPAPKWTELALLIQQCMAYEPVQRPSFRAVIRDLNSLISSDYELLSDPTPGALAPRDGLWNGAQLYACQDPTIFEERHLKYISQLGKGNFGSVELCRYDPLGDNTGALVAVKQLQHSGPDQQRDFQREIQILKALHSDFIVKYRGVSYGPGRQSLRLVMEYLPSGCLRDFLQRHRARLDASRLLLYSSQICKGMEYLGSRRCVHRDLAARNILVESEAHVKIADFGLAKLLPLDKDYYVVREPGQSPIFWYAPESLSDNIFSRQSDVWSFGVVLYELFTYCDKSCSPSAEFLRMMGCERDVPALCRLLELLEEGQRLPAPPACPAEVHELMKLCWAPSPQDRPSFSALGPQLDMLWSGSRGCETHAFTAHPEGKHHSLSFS

[13] = molecular target: Hepatocyte growth factor receptor (Homo sapiens) (UniProt P08581); experiment: Inhibition of Hepatocyte growth factor receptor at 30 uM; assay type: cell-based
Hepatocyte growth factor receptor (Homo sapiens), sequence (P08581 whole entry): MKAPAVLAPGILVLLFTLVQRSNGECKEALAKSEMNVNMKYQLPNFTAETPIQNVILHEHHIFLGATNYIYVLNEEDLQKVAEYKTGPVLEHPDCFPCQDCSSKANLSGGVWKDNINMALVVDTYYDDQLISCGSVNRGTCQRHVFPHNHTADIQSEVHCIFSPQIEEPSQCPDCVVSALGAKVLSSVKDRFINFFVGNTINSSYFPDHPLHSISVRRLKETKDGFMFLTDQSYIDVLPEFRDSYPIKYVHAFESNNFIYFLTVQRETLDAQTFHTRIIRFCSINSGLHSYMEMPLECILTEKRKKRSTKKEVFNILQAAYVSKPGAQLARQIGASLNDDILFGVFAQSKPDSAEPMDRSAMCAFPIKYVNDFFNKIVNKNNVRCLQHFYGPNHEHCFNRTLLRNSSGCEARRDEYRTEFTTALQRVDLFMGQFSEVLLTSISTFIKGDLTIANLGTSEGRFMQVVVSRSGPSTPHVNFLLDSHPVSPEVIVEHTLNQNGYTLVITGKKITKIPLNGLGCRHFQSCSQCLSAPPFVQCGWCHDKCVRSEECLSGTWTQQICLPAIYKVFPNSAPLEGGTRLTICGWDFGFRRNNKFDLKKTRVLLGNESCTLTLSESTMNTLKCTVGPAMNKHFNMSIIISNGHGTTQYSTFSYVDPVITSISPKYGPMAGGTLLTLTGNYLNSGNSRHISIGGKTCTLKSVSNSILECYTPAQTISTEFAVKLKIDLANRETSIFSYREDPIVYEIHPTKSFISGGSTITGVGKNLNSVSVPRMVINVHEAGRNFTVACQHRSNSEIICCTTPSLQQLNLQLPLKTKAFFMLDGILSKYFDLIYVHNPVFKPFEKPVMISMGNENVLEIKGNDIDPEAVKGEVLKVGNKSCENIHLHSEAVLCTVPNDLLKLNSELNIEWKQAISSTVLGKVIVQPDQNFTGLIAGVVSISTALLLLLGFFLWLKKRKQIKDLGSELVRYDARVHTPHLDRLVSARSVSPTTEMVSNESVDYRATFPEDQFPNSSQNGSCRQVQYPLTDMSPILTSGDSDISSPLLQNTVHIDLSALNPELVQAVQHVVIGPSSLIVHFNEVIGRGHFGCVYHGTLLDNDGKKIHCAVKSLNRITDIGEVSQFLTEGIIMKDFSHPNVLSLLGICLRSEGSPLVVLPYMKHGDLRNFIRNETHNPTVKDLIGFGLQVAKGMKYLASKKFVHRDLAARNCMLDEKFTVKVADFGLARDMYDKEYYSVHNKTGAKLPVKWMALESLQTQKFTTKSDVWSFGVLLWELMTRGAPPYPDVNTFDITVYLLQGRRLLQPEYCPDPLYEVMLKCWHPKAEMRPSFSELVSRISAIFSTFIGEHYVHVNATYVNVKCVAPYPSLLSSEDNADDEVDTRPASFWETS

[14] = molecular target: T3, Tyrosine-protein kinase ZAP-70 (Homo sapiens) (UniProt P43403); experiment: Inhibition of Zeta-chain (TCR) associated protein kinase 70kDa, Zap70 at 10 uM
T3 sequence (whole entry): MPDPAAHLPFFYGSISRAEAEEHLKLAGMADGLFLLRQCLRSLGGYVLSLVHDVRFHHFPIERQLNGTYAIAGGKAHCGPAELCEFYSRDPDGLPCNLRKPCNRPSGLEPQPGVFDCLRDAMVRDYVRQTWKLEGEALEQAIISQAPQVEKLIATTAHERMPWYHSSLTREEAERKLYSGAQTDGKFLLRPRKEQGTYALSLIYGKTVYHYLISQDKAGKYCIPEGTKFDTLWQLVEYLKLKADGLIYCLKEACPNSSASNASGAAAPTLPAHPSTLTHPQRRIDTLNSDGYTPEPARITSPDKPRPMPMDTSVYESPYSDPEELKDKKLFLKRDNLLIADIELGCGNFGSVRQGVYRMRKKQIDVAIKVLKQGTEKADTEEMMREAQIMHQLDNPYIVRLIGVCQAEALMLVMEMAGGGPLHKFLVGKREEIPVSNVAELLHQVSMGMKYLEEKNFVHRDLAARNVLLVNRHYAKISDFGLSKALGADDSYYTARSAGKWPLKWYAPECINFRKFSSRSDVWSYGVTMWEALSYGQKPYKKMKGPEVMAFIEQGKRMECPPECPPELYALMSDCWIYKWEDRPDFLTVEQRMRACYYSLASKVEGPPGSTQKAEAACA

[15] = molecular target: Vascular endothelial growth factor receptor (Homo sapiens) (UniProt P17948+P35916+P35968); experiment: Inhibition of VEGF receptor kinase at 30 uM; assay type: protein assay
[16] = molecular target: Protein kinase C (PKC) (Homo sapiens) (UniProt O94806+P41743+P17252+P05129+Q05655+P05771+Q05513+Q02156+P24723+Q15139+Q04759); experiment: Inhibition of Protein kinase C at 100 uM; assay type: protein assay
[17] = % Bioavailability after 1 day of the drug administration in rats; assay type: ADME, organism-based; conditions: rat, in vivo
[18] = molecular target: Tyrosine-protein kinase JAK2 (Homo sapiens, UniProt O60674); experiment: Inhibition of Janus kinase 2
Tyrosine-protein kinase JAK2, sequence (O60674 whole entry): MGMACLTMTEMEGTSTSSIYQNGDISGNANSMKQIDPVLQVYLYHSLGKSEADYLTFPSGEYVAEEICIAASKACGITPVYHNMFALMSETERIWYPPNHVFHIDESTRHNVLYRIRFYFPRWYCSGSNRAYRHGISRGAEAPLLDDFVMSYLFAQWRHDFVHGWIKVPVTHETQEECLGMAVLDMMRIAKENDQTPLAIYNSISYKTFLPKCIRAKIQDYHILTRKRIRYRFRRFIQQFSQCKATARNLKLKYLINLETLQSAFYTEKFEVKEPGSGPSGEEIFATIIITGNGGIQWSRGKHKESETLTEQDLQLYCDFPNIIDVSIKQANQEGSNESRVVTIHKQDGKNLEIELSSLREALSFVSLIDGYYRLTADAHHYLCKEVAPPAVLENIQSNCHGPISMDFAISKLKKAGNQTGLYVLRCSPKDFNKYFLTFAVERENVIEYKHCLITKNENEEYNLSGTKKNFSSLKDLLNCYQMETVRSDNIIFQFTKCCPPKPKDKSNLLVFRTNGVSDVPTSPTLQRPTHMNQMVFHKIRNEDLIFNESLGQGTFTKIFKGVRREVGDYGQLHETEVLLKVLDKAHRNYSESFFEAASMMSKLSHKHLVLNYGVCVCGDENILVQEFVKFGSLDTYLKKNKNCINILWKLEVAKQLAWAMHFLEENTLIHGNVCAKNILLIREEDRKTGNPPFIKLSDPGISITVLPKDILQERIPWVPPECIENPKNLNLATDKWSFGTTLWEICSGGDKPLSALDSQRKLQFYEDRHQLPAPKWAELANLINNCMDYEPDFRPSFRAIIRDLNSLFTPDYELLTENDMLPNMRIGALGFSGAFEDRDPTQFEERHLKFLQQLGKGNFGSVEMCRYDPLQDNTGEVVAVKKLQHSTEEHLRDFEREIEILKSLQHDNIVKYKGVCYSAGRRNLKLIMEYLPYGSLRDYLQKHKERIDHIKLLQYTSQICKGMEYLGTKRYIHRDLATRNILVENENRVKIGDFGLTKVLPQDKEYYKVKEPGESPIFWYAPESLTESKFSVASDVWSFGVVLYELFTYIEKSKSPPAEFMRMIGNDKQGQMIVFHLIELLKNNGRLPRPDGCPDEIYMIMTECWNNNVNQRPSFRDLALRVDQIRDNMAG

[19] = molecular target: Insulin-like growth factor 1 receptor (Homo sapiens, UniProt P08069); experiment: Inhibitory concentration against IGF kinase was determined.
Insulin-like growth factor 1 receptor, sequence (P08069 31-736 limits assumed): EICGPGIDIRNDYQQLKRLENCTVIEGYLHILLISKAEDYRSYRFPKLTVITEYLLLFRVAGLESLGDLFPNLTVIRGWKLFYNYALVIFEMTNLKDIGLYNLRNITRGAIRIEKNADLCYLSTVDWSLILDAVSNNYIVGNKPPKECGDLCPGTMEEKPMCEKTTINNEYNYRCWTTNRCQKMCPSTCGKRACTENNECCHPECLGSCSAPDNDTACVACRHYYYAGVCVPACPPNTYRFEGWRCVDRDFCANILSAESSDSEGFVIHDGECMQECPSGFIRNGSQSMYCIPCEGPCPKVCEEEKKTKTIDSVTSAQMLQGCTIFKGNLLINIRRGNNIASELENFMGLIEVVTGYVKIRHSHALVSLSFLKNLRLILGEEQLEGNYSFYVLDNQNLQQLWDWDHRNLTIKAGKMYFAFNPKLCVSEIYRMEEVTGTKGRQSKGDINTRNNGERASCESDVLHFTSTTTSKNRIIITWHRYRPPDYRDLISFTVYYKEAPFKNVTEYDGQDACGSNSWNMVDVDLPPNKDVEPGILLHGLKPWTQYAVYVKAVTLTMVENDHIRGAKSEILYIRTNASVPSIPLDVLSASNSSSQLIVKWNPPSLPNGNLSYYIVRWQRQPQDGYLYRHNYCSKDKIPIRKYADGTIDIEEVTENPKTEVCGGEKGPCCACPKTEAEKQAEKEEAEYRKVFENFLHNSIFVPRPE
Insulin-like growth factor 1 receptor, sequence (P08069 741-1367 limits assumed): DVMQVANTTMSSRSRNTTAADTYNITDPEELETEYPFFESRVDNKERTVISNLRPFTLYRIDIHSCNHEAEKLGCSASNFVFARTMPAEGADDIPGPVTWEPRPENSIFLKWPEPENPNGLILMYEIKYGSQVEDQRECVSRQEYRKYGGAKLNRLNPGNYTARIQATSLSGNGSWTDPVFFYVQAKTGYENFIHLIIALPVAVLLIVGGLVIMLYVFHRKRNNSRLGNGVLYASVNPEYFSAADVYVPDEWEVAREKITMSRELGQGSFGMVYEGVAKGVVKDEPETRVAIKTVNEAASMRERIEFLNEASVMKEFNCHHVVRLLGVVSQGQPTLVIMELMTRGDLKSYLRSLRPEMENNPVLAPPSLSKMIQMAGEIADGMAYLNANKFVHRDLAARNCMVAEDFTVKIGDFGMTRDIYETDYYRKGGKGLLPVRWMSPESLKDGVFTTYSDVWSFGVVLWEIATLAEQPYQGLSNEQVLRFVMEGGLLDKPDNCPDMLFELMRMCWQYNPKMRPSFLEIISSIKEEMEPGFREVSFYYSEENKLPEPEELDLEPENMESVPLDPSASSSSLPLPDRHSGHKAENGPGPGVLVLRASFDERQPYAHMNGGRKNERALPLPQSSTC

SMILES: COc1cc2ncc(N[C@@H]3CC4CC3C[C@H]4O)nc2cc1OC (stereo partly drawn)
IC50 [1]: 0.024 µM | IC50 (HASMC): 0.164 µM

SMILES: COc1cc2cc(-c3ccsc3)cnc2cc1OC
bioavailability [3]: 49% | bioavailability [4]: 21%

SMILES: COc1cc2ncc(NC3CCCCC3)nc2cc1OC
bioavailability [3]: 17% | bioavailability [4]: 16%

SMILES: CNC(=O)C1CCC(Nc2cnc3cc(OC)c(OC)cc3n2)CC1 (stereo not drawn)
IC50 [1]: 3.1 µM

SMILES: COc1cc2ncc(N[C@H]3CC[C@H](O)CC3)nc2cc1OC
inhibition [6]: 3% | IC50 [7]: 0.389 µM | inhibition [8]: 54% | inhibition [9]: 2% | bioavailability [10]: 72% | IC50 [11]: > 50 µM | IC50 [12]: > 50 µM | inhibition [13]: 17% | inhibition [14]: 0% | inhibition [15]: 0% | inhibition [16]: 7% | bioavailability [17]: 82% | IC50 [18]: > 50 µM | IC50 [19]: > 10 µM

SMILES: COC(=O)C1CCC(Nc2cnc3cc(OC)c(OC)cc3n2)CC1 (stereo not drawn)
IC50 [1]: 0.049 µM

SMILES: COc1cc2ncc(N[C@H]3CC[C@H](C(=O)OC)CC3)nc2cc1OC
IC50 [1]: 0.345 µM

The next lines start with the values.

inhibition [2]: 10%
SMILES: COc1cc2ncc(NC3CCC(C(=O)N4CCN(C)CC4)CC3)nc2cc1OC (stereo not drawn)

inhibition [2]: 15%
SMILES: COc1cc2ncc(NC3CCC(C(=O)O)CC3)nc2cc1OC (stereo not drawn)

inhibition [2]: 5% | IC50 (HASMC): > 10 µM
SMILES: COc1cc2ncc(N[C@H]3CC[C@@H](O)[C@H](C)C3)nc2cc1OC

inhibition [5]: 14%
SMILES: COc1cc2ncc(N3C(=O)C4CCC3CC4)nc2cc1OC

inhibition [2]: -9%
SMILES: COc1cc2ncc(NC3CCCC(N)C3)nc2cc1OC (stereo not drawn)

IC50 [1]: 0.93 µM
SMILES: COc1cc2ncc(NC3CCC(C(N)=O)CC3)nc2cc1OC (stereo not drawn)

IC50 [1]: 0.018 µM | IC50 (HASMC): 0.134 µM
SMILES: COc1cc2ncc(N[C@@H]3CC[C@H](O)[C@@H](C)C3)nc2cc1OC

IC50 [1]: 0.028 µM
SMILES: COc1cc2ncc(N[C@H]3CC[C@@H](C(=O)OC)CC3)nc2cc1OC
